{"source": "patent US20160030561A1", "about": "“Methods of Treating Pancreatic Cancer” (ONCOMED PHARMACEUTICALS, INC., priority 2013, published 2016)", "key": {"T-ALL": {"test_system": "T-ALL", "settings": "T-ALL animal model; cited from earlier work"}, "medulloblastoma": {"test_system": "medulloblastoma", "settings": "cited from earlier work"}, "[1]": {"test_system": "Ras-transformed fibroblasts", "settings": "cited from earlier work"}, "[2]": {"test_system": "tumor cell lines that overexpressed NOTCH3", "settings": "tumor cell lines that overexpressed NOTCH3, not those with minimal NOTCH3 expression; cited from earlier work"}, "[3]": {"test_system": "melanoma and Kaposi sarcoma", "settings": "cell lines and/or xenografts in mice from melanoma and Kaposi sarcoma; cited from earlier work"}, "[4]": {"test_system": "pancreatic tumors with high NOTCH3 gene expression", "test": "In vivo xenograft assay, panel of pancreatic tumors with high NOTCH3 gene expression", "parameters": "species or system NOD-SCID mice", "settings": "treatment with OMP-59R5 and gemcitabine; NOTCH3 cut-off value of 500", "experimental": "(§1) 20,000 OMP-PN8 tumor cells were injected into NOD-SCID mice. Tumors were allowed to grow 22 days until they had reached an average volume of 125 mm^3. […] Antibodies were dosed every other week at 40 mg/kg. Gemcitabine was dosed at 20 mg/kg weekly."}, "[5]": {"test_system": "UM-T1 breast (NOTCH3 high expressing) tumor cells", "test": "In vivo xenograft assay, UM-T1 breast tumor", "parameters": "species or system NOD-SCID mice", "settings": "FIG. 1E", "experimental": "Tumors were allowed to grow 28 days until they had reached an average volume of 120 mm^3. […] Antibodies were dosed weekly at 20 mg/kg. Taxol was dosed at 10 mg/kg weekly."}, "OMP-PN11 tumor cells": {"test_system": "OMP-PN11 tumor cells", "test": "In vivo xenograft assay, OMP-PN11 pancreatic tumor", "parameters": "species or system NOD-SCID mice", "settings": "FIG. 1C", "experimental": "50,000 OMP-PN11 tumor cells were injected into NOD-SCID mice. Tumors were allowed to grow 21 days until they had reached an average volume of 120 mm^3. […] Antibodies were dosed every other week at 40 mg/kg. Gemcitabine was dosed at 20 mg/kg weekly."}, "[6]": {"test_system": "OMP-PN17 pancreatic tumor", "test": "In vivo xenograft assay, OMP-PN17 pancreatic tumor", "parameters": "species or system NOD-SCID mice", "settings": "FIG. 1B", "experimental": "as §1\nThe ability of anti-NOTCH2/3 OMP-59R5 antibody to inhibit the in vivo growth of OMP-PN17 pancreatic tumor was determined using substantially identical methods."}, "[7]": {"test_system": "breast or lung tumors with high NOTCH3 gene expression", "test": "In vivo xenograft assay, panel of breast or lung tumors with high NOTCH3 gene expression", "parameters": "species or system NOD-SCID mice", "settings": "OMP-59R5 in combination with a chemotherapeutic agent (taxol); NOTCH3 cut-off value of 500", "experimental": "(§2) Antibodies were dosed weekly at 20 mg/kg. Taxol was dosed at 10 mg/kg weekly."}, "[8]": {"test_system": "UM-PE13 breast (NOTCH3 high expressing) tumor cells", "test": "In vivo xenograft assay, UM-PE13 breast tumor", "parameters": "species or system NOD-SCID mice", "settings": "FIG. 1D", "experimental": "as §2"}, "[9]": {"test_system": "OMP-Lu53 lung (NOTCH3 high expressing) tumor cells", "test": "In vivo xenograft assay, OMP-Lu53 lung tumor", "parameters": "species or system NOD-SCID mice", "settings": "in combination with taxol; antibody 40 mg/kg every other week, taxol 10 mg/kg weekly; FIG. 1G", "experimental": "Antibodies were dosed every other week at 40 mg/kg. Taxol was dosed at 10 mg/kg weekly."}, "OMP-PN8 tumor cells": {"test_system": "OMP-PN8 tumor cells", "test": "In vivo xenograft assay, OMP-PN8 pancreatic tumor", "parameters": "species or system NOD-SCID mice", "experimental": "as §1\nTumors were allowed to grow 26 days until they had reached an average volume of 110 mm^3. Tumor bearing mice were randomized into 3 groups (n=9 mice per group) and treated with control antibody, gemcitabine, plus ABRAXANE™ (albumin bound paclitaxel), or the combination of OMP-59R5 anti-NOTCH2/3 antibody and gemcitabine plus ABRAXANE™ OMP-59R5 was dosed every other week at 40 mg/kg. Gemcitabine was dosed at 10 mg/kg weekly and ABRAXANE™ at 30 mg/kg weekly. […] The top and bottom graphs show data obtained from the same experiment on different scales."}, "[10]": {"test_system": "OMP-Lu40 lung (NOTCH3 low expressing) tumor cells", "test": "In vivo xenograft assay, OMP-Lu40 lung tumor", "parameters": "species or system NOD-SCID mice", "settings": "in combination with taxol; antibody 20 mg/kg weekly, taxol 10 mg/kg weekly; FIG. 1F", "experimental": "as §2"}, "intestinal adenomas": {"test_system": "intestinal adenomas", "settings": "intestinal adenomas in Apc−/− (min) mice; cited from earlier work"}, "[11]": {"settings": "as a single agent, 20 mg/kg weekly"}, "[12]": {"settings": "in combination with taxol, antibody 20 mg/kg weekly, taxol 10 mg/kg weekly"}}, "note": "Entries after “also recorded” stand apart in the source; their conditions may differ. Where a SMILES comes first, the peptide text is derived from it. [ ]: non-standard residue; d: D form. The star is where a group is joined. Nle = CCCC[C@H](N)C(=O)O; Cbz = O=C(OCc1ccccc1)*", "data": [{"compound": "C[C@H](NC(=O)Cc1cc(F)cc(F)c1)C(=O)N[C@H](C(=O)OC(C)(C)C)c1ccccc1", "note": "[DAPT, N-[N-(3,5-difluorophenacetyl)-L-alanyl]-S-phenylglycine t-butyl ester]", "values": [{"measurement": "Cell cycle arrest and apoptosis", "setting": "T-ALL", "value": "induced G0-G1 cell cycle arrest and apoptosis"}, {"measurement": "Medulloblastoma growth", "setting": "medulloblastoma", "value": "marked reduction"}]}, {"compound": "CCC(C)C(NC(=O)OCc1ccccc1)C(=O)NC(C=O)CC(C)C", "note": "(stereo not drawn) [IL-X, cbz-IL-CHO] (Cbz-Ile-Leu-aldehyde; configuration not given here)", "values": [{"measurement": "Antineoplastic activity", "setting": "[1]", "value": "NOTCH1-dependent antineoplastic activity"}]}, {"compound": "CCCC[C@@H](C=O)NC(=O)[C@H](CC(C)C)NC(=O)[C@H](CC(C)C)NC(=O)OCc1ccccc1", "note": "[z-Leu-leu-Nle-CHO] (Cbz-Leu-Leu-[Nle]-aldehyde)", "values": [{"measurement": "Cell proliferation and apoptosis", "setting": "[2]", "value": "suppression of cell proliferation and induction of apoptosis"}, {"measurement": "Tumor growth", "setting": "[3]", "value": "suppress tumor growth"}]}, {"compound": "OMP-59R5 + gemcitabine: combination treatment with OMP-59R5 anti-NOTCH2/3 antibody and gemcitabine", "values": [{"measurement": "Pancreatic tumors with high NOTCH3 gene expression responsive in vivo", "setting": "[4]", "value": "9 out of the 10"}]}, {"compound": "OMP-59R5: 59R5 IgG2 anti-NOTCH2/3 antibody, heavy and light chain of SEQ ID NO:30 and SEQ ID NO:33; ATCC PTA-10170", "values": [{"measurement": "UM-T1 tumor growth", "setting": "[5]; [11]", "value": "no effect"}, {"measurement": "UM-T1 tumor growth", "setting": "[5]; [12]", "value": "no effect"}, {"measurement": "OMP-PN11 tumor growth", "setting": "OMP-PN11 tumor cells; as a single agent, 40 mg/kg every other week", "value": "no effect"}, {"measurement": "OMP-PN11 tumor growth", "setting": "OMP-PN11 tumor cells; in combination with gemcitabine, antibody 40 mg/kg every other week, gemcitabine 20 mg/kg weekly", "value": "no effect"}, {"measurement": "OMP-PN17 tumor growth", "setting": "[6]; as a single agent", "value": "strongly inhibited"}, {"measurement": "OMP-PN17 tumor growth", "setting": "[6]; in combination with gemcitabine", "value": "strongly inhibited"}, {"measurement": "Breast or lung tumors with high NOTCH3 gene expression responsive", "setting": "[7]", "value": "5 out of 14"}, {"measurement": "UM-PE13 tumor growth", "setting": "[8]; [11]", "value": "strongly inhibited"}, {"measurement": "UM-PE13 tumor growth", "setting": "[8]; [12]", "value": "strongly inhibited"}, {"measurement": "OMP-Lu53 tumor growth", "setting": "[9]", "value": "no effect"}, {"measurement": "OMP-PN8 tumor growth", "setting": "OMP-PN8 tumor cells; as a single agent, 40 mg/kg every other week, FIG. 1A", "value": "strongly inhibited"}, {"measurement": "Activity on OMP-PN8 tumor growth compared with gemcitabine plus ABRAXANE alone", "setting": "OMP-PN8 tumor cells; in combination with gemcitabine plus ABRAXANE, FIG. 9", "value": "more active"}, {"measurement": "OMP-PN8 tumor growth", "setting": "OMP-PN8 tumor cells; in combination with gemcitabine plus ABRAXANE, OMP-59R5 40 mg/kg every other week, gemcitabine 10 mg/kg weekly, ABRAXANE 30 mg/kg weekly, FIG. 9", "value": "strongly inhibited; also recorded: active"}, {"measurement": "OMP-PN8 tumor growth", "setting": "OMP-PN8 tumor cells; in combination with gemcitabine, antibody 40 mg/kg every other week, gemcitabine 20 mg/kg weekly, FIG. 1A", "value": "strongly inhibited"}, {"measurement": "OMP-Lu40 tumor growth", "setting": "[10]", "value": "strongly inhibited"}]}, {"compound": "dibenzazepine", "values": [{"measurement": "Epithelial cell proliferation and goblet cell differentiation", "setting": "intestinal adenomas", "value": "inhibit epithelial cell proliferation and induce goblet cell differentiation"}]}]}
